Source: patent US20140357633A1, “COMPOUNDS FOR INHIBITING THE INTERACTION OF BCL2 WITH BINDING PARTNERS” (NOVARTIS AG, priority 2011, published 2014)

Tests used:
[1] = target: BCL-2 (binding to BAK peptide) (Homo sapiens, UniProt P10415); assay: SPR (Biacore) solution inhibition assay, BCL-2 binding to immobilized BAK peptide; details: biotinylated BAK peptide surface, 56 nM BCL-2, 25° C.; range = high and low IC50 values from multiple experiments; read-out: BCL2_SPR IC50 BAK
Procedure, shortened: (§1)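 Compounds (6-point threefold series, 16 μM to 0.004 nM) preincubated 1 h with 56 nM BCL-2, then injected 60 s over biotinylated peptide captured on streptavidin chips at 25° C. Running buffer: 10 mM HEPES pH 7.4, 150 mM NaCl, 1.25 mM DTT, 3% DMSO, 0.05% polysorbate 20. % inhibition versus BCL-2-only binding gave IC50.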

[2] = target: BCL-2 (binding to BAD peptide) (Homo sapiens, UniProt P10415); assay: SPR (Biacore) solution inhibition assay, BCL-2 binding to immobilized BAD peptide; details: biotinylated BAD peptide surface, 56 nM BCL-2, 25° C.; range = high and low IC50 values from multiple experiments; read-out: BCL2_SPR IC50 BAD
Sequence of BCL-2 (binding to BAD peptide) (P10415 whole entry): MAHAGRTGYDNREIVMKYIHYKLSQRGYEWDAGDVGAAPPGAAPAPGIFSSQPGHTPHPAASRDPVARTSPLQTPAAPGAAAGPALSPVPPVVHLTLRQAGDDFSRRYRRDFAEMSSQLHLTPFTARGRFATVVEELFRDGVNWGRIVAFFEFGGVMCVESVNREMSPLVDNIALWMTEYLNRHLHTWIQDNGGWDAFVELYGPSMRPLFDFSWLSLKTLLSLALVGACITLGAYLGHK
Procedure, shortened: as §1

Sequence of BCL-2 (binding to BAK peptide) (P10415 whole entry): as above

Row | IC50 [1] | IC50 [2] | SMILES
1 | 426 to 594 nM | 455 to 539 nM | CCCCN(CCCC)C(=O)c1cc(C)n(-c2ccc(NC(=O)c3ccc(NS(=O)(=O)Cc4ccccc4)cc3)cc2C(=O)N2Cc3ccccc3C[C@H]2CO)n1 [Example 143]
2 | 2380 to 4330 nM | 5790 to 6250 nM | CCCCN(CCCC)C(=O)c1cc(C)n(-c2ccc(NC(=O)c3ccc(SC(F)(F)F)cc3)cc2C(=O)N2Cc3ccccc3C[C@H]2CO)n1 [Example 154]
3 | 153 to 175 nM | 216 to 250 nM | CCCCN(CCCC)C(=O)c1cc(C)n(-c2ccc(NC(=O)CCC(=O)O)cc2C(=O)N2Cc3ccccc3C[C@H]2CO)n1 [Example 17]
4 | 581 to 600 nM | 846 to 870 nM | CCCCC(CCCC)C(=O)c1cc(C)n(-c2ccc(NC(=O)COc3ccc(N4CCCC4=O)cc3)cc2C(=O)N2Cc3ccccc3C[C@H]2CO)n1 [Example 48]
5 | 58.5 to 70.9 nM | 61.9 to 66.8 nM | CCCCN(CCCC)C(=O)c1cc(C)n(-c2ccc(NC(=O)C(CC(=O)N3CCCC3)c3ccccc3)cc2C(=O)N2Cc3ccccc3C[C@H]2CO)n1 (stereo partly drawn) [Example 27]
6 | 395 to 410 nM | 531 to 537 nM | CCCCN(CCCC)C(=O)c1cc(C)n(-c2ccc(NC(=O)c3cc(=O)c4cc(C)ccc4o3)cc2C(=O)N2Cc3ccccc3C[C@H]2CO)n1 [Example 59]
7 | 236 to 238 nM | 273 to 284 nM | CCCCN(CCCC)C(=O)c1cc(C)n(-c2ccc(NC(=O)c3ncoc3-c3ccccc3)cc2C(=O)N2Cc3ccccc3C[C@H]2CO)n1 [Example 44]
8 | 119 to 144 nM | 132 to 146 nM | CCCCN(CCCC)C(=O)c1cc(C)n(-c2ccc(NC(=O)C(C)(C)c3ccccc3)cc2C(=O)N2Cc3ccccc3C[C@H]2CO)n1 [Example 31]
9 | 192 to 194 nM | 276 to 287 nM | CCCCN(CCCC)C(=O)c1cc(C)n(-c2ccc(NC(=O)Cc3ccccc3Cl)cc2C(=O)N2Cc3ccccc3C[C@H]2CO)n1 [Example 139]
10 | 180 to 193 nM | 229 to 238 nM | CCCCN(CCCC)C(=O)c1cc(C)n(-c2ccc(NC(=O)Cc3cccc(C#N)c3)cc2C(=O)N2Cc3ccccc3C[C@H]2CO)n1 [Example 160]
11 | 310 to 360 nM | 410 to 438 nM | CCCCN(CCCC)C(=O)c1cc(C)n(-c2ccc(NC(=O)CCCOCc3ccccc3)cc2C(=O)N2Cc3ccccc3C[C@H]2CO)n1 [Example 133]
12 | 100 to 103 nM | 122 to 125 nM | CCCCN(CCCC)C(=O)c1cc(C)n(-c2ccc(NC(=O)c3ccccc3Oc3ccccc3)cc2C(=O)N2Cc3ccccc3C[C@H]2CO)n1 [Example 68]
13 | 3740 to 4130 nM | > 16000 nM | CCCCN(CCCC)C(=O)c1cc(C)n(-c2ccc(NC(=O)c3ccc(Oc4ccc(F)cc4)cc3)cc2C(=O)N2Cc3ccccc3C[C@H]2CO)n1 [Example 91]
14 | 298 to 315 nM | 306 to 381 nM | CCCCN(CCCC)C(=O)c1cc(C)n(-c2ccc(NC(=O)c3ccc4c(c3)nnn4C(C)C)cc2C(=O)N2Cc3ccccc3C[C@H]2CO)n1 [Example 147]
15 | 48.5 to 49.6 nM | 56.8 to 58.8 nM | CCCCN(CCCC)C(=O)c1cc(C)n(-c2ccc(NC(=O)C(OC)c3ccccc3)cc2C(=O)N2Cc3ccccc3C[C@H]2CO)n1 (stereo partly drawn) [Example 72]
16 | 127 to 129 nM | 172 to 174 nM | CCCCN(CCCC)C(=O)c1cc(C)n(-c2ccc(NC(=O)C(C)CC(=O)O)cc2C(=O)N2Cc3ccccc3C[C@H]2CO)n1 (stereo partly drawn) [Example 37]
17 | 106 to 124 nM | 143 to 166 nM | CCCCN(CCCC)C(=O)c1cc(C)n(-c2ccc(NC(=O)C(C)(C)CC(=O)O)cc2C(=O)N2Cc3ccccc3C[C@H]2CO)n1 [Example 39]
18 | 3900 to 4170 nM | 4850 to 4930 nM | CCCCN(CCCC)C(=O)c1cc(C)n(-c2ccc(NC(=O)COc3ccccc3Cl)cc2C(=O)N2Cc3ccccc3C[C@H]2CO)n1 [Example 23]
19 | 229 to 271 nM | 306 to 319 nM | CCCCN(CCCC)C(=O)c1cc(C)n(-c2ccc(NC(=O)CCCc3ccc([N+](=O)[O-])cc3)cc2C(=O)N2Cc3ccccc3C[C@H]2CO)n1 [Example 61]

Further lines, the compound ahead of its results:

Row | SMILES | IC50 [1] | IC50 [2]
20 | CCCCN(CCCC)C(=O)c1cc(C)n(-c2ccc(NC(=O)c3cn4ccccc4n3)cc2C(=O)N2Cc3ccccc3C[C@H]2CO)n1 [Example 58] | 204 to 205 nM | 249 to 282 nM
21 | CCCCN(CCCC)C(=O)c1cc(C)n(-c2ccc(NC(=O)COc3ccc4ccccc4c3)cc2C(=O)N2Cc3ccccc3C[C@H]2CO)n1 [Example 126] | 48.8 to 50.5 nM | 60 to 61.4 nM
22 | CCCCN(CCCC)C(=O)c1cc(C)n(-c2ccc(NC(=O)CC(C)S(=O)(=O)c3ccc(Cl)cc3)cc2C(=O)N2Cc3ccccc3C[C@H]2CO)n1 (stereo partly drawn) [Example 90] | 159 to 187 nM | 156 to 210 nM
23 | CCCCN(CCCC)C(=O)c1cc(C)n(-c2ccc(NC(=O)CCNC(C)=O)cc2C(=O)N2Cc3ccccc3C[C@H]2CO)n1 [Example 56] | 722 to 725 nM | 1090 nM
24 | CCCCC(CCCC)C(=O)c1cc(C)n(-c2ccc(NC(=O)COc3cccc4ccccc34)cc2C(=O)N2Cc3ccccc3C[C@H]2CO)n1 [Example 110] | 250 to 272 nM | 273 to 318 nM
25 | CCCCN(CCCC)C(=O)c1cc(C)n(-c2ccc(NC(=O)CC(CC(=O)O)c3ccccc3)cc2C(=O)N2Cc3ccccc3C[C@H]2CO)n1 (stereo partly drawn) [Example 16] | 95.7 to 103 nM | 119 to 126 nM
26 | CCCCN(CCCC)C(=O)c1cc(C)n(-c2ccc(NC(=O)c3cc(S(N)(=O)=O)ccc3OC)cc2C(=O)N2Cc3ccccc3C[C@H]2CO)n1 [Example 71] | 72 to 74.7 nM | 93.5 to 99.9 nM
27 | CCCCN(CCCC)C(=O)c1cc(C)n(-c2ccc(NC(=O)c3cnc(N4CCCC4)nc3)cc2C(=O)N2Cc3ccccc3C[C@H]2CO)n1 [Example 88] | 290 to 393 nM | 388 to 405 nM
28 | CCCCN(CCCC)C(=O)c1cc(C)n(-c2ccc(NC(=O)C(C)c3noc4ccccc34)cc2C(=O)N2Cc3ccccc3C[C@H]2CO)n1 (stereo partly drawn) [Example 161] | 1330 to 1560 nM | 3070 to 3910 nM
29 | CCCCN(CCCC)C(=O)c1cc(C)n(-c2ccc(NC(=O)Cc3c(C)[nH]c4c(F)cccc34)cc2C(=O)N2Cc3ccccc3C[C@H]2CO)n1 [Example 63] | 58.3 to 61.2 nM | 67.4 to 76.1 nM
30 | CCCCN(CCCC)C(=O)c1cc(C)n(-c2ccc(NC(=O)CC(C(=O)O)c3ccccc3)cc2C(=O)N2Cc3ccccc3C[C@H]2CO)n1 (stereo partly drawn) [Example 42] | 55 to 61.3 nM | 51.1 to 59.1 nM
31 | CCCCN(CCCC)C(=O)c1cc(C)n(-c2ccc(NC(=O)Cc3cccnc3)cc2C(=O)N2Cc3ccccc3C[C@H]2CO)n1 [Example 118] | 139 to 153 nM | 164 to 171 nM
32 | CCCCN(CCCC)C(=O)c1cc(C)n(-c2ccc(NC(=O)c3ccc(COC)o3)cc2C(=O)N2Cc3ccccc3C[C@H]2CO)n1 [Example 142] | 935 to 1120 nM | 1130 to 1300 nM
33 | CCCCN(CCCC)C(=O)c1cc(C)n(-c2ccc(NC(=O)COc3ccc([N+](=O)[O-])cc3)cc2C(=O)N2Cc3ccccc3C[C@H]2CO)n1 [Example 21] | 1950 to 2170 nM | 2390 to 2670 nM
34 | CCCCN(CCCC)C(=O)c1cc(C)n(-c2ccc(NC(=O)C3CC(=O)N(c4ccc(OCC)cc4)C3)cc2C(=O)N2Cc3ccccc3C[C@H]2CO)n1 (stereo partly drawn) [Example 115] | 153 to 154 nM | 180 to 204 nM
35 | CCCCN(CCCC)C(=O)c1cc(C)n(-c2ccc(NC(=O)OCC(C)C)cc2C(=O)N2Cc3ccccc3C[C@H]2CO)n1 [Example 9] | 394 to 452 nM | 499 to 606 nM
36 | CCCCN(CCCC)C(=O)c1cc(C)n(-c2ccc(NC(=O)c3oc(-c4ccccc4)nc3C)cc2C(=O)N2Cc3ccccc3C[C@H]2CO)n1 [Example 46] | 692 to 840 nM | 628 to 760 nM
